Each compound was assayed against T1, F508del (Homo sapiens, UniProt P13569, DEL508-508) (assay: Protocol 1: membrane potential optical assay (FLIPR III, voltage sensing dye), identification of potentiator compounds). Conditions: Table 3, compounds of Table 1.
T1 construct: expressed in transfected cells
Type: cell-based
How it was run: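 Mouse NIH 3T3 fibroblasts stably expressing F508del, temperature-corrected at 27 °C for 24 h, pretreated with compound, then loaded with voltage-sensing redistribution dye. Forskolin was added in a single step with a chloride gradient (chloride-free gluconate bath; Bath Solution #1 HEPES pH 7.4). Membrane-potential fluorescence read on FLIPR III.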

T1 sequence (P13569 with tags, fused parts or gaps DEL508-508): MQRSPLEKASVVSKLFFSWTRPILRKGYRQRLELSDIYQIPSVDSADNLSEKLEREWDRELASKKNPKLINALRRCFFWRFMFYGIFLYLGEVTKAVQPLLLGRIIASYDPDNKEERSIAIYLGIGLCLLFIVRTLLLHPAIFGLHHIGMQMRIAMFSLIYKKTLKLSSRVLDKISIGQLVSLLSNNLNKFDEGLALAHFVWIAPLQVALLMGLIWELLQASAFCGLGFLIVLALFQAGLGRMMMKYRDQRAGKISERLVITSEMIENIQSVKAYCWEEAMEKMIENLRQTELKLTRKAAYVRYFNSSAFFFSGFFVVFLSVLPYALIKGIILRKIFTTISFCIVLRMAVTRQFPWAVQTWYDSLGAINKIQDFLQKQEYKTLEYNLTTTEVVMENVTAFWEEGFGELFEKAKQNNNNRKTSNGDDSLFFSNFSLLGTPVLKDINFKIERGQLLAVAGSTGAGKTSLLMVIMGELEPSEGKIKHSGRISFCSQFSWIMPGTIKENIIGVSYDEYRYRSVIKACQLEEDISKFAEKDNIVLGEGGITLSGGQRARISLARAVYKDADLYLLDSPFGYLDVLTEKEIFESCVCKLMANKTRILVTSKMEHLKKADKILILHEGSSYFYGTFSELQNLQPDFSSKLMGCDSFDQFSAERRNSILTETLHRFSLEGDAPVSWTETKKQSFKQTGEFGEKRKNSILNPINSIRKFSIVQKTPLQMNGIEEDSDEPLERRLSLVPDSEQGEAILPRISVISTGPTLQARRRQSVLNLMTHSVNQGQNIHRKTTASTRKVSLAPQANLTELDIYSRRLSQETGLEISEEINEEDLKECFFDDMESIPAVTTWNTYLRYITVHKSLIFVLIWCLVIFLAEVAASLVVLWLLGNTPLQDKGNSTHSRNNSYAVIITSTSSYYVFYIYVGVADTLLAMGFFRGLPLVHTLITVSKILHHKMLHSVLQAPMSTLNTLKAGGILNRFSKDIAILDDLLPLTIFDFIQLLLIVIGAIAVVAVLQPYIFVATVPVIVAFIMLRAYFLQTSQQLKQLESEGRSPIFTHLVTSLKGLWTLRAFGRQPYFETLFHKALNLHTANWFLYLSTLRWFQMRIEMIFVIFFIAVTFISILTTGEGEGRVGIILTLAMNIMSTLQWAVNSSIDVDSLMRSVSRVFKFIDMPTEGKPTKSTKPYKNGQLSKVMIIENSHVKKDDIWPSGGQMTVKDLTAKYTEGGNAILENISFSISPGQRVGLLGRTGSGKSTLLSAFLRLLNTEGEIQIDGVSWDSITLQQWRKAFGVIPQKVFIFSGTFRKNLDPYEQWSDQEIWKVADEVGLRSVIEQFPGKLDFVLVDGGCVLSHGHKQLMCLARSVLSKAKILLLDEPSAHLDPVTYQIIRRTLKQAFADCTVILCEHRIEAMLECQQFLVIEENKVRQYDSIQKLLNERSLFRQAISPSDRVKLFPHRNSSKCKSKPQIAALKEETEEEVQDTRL

| SMILES | EC30 |
| --- | --- |
| CC1CN(c2nc(C(C)(C)C)c(C3=CCC4(CC3)OCCO4)cc2C(=O)NS(=O)(=O)c2cccc(N)n2)C(C)(C)C1 (stereo not shown) [Compound 1459, N-[(6-amino-2-pyridyl)sulfonyl]-6-tert-butyl-5-(1,4-dioxaspiro[4.5]dec-8-en-8-yl)-2-(2,2,4-trimethylpyrrolidin-1-yl)pyridine-3-carboxamide] | +++ (“+++” means <3 uM) |
| CC(=O)C1CC=C(c2cc(C(=O)NS(=O)(=O)c3cccc(N)n3)c(N3CC(C)CC3(C)C)nc2C(C)(C)C)CC1 (stereo not shown) [Compound 1461, 5-(4-acetylcyclohexen-1-yl)-N-[(6-amino-2-pyridyl)sulfonyl]-6-tert-butyl-2-(2,2,4-trimethylpyrrolidin-1-yl)pyridine-3-carboxamide] | +++ (“+++” means <3 uM) |
| CC(C)COc1cc(F)cc(-c2ccc(C(=O)NS(=O)(=O)c3cccc(N)n3)c(OCCC3CCCCC3)n2)c1 [Compound 1465, N-[(6-amino-2-pyridyl)sulfonyl]-2-(2-cyclohexylethoxy)-6-(3-fluoro-5-isobutoxy-phenyl)pyridine-3-carboxamide] | +++ (“+++” means <3 uM) |
| CC(C)COc1cc(F)cc(-c2ccc(C(=O)NS(=O)(=O)N3CCC(N)C3)c(N3CC(C)CC3(C)C)n2)c1 (stereo not shown) [Compound 1467, N-(3-aminopyrrolidin-1-yl)sulfonyl-6-(3-fluoro-5-isobutoxy-phenyl)-2-(2,2,4-trimethylpyrrolidin-1-yl)pyridine-3-carboxamide] | +++ (“+++” means <3 uM) |
| Cc1cccc(C)c1Cn1nc(C(C)(C)C)cc1C(=O)NS(=O)(=O)c1ccco1 [Compound 1468, 5-tert-butyl-2-[(2,6-dimethylphenyl)methyl]-N-(2-furylsulfonyl)pyrazole-3-carboxamide] | +++ (“+++” means <3 uM) |
| CC1CN(c2nc(C(C)(C)C)c(C3=CCCC4(C3)OCCO4)cc2C(=O)NS(=O)(=O)c2cccc(N)n2)C(C)(C)C1 (stereo not shown) [Compound 1469, N-[(6-amino-2-pyridyl)sulfonyl]-6-tert-butyl-5-(1,4-dioxaspiro[4.5]dec-8-en-9-yl)-2-(2,2,4-trimethylpyrrolidin-1-yl)pyridine-3-carboxamide] | ++ (“++” means between 3 uM and 10 uM) |
| CCOc1cccc2c1CN(Cc1c(C)cc(C)cc1C)C2(C)C(=O)NS(=O)(=O)c1cccc(OC)c1 (stereo not shown) [Compound 1470, 4-ethoxy-N-(3-methoxyphenyl)sulfonyl-1-methyl-2-[(2,4,6-trimethylphenyl)methyl]isoindoline-1-carboxamide] | +++ (“+++” means <3 uM) |
| Cc1cc(N)nc(S(=O)(=O)NC(=O)c2ccc(-c3cc(F)cc(OCC(C)C)c3)nc2N2C[C@@H](C)CC2(C)C)c1 [Compound 1472, N-[(6-amino-4-methyl-2-pyridyl)sulfonyl]-6-(3-fluoro-5-isobutoxy-phenyl)-2-[(4S)-2,2,4-trimethylpyrrolidin-1-yl]pyridine-3-carboxamide] | +++ (“+++” means <3 uM) |
| CCOc1cccc2c1CN(Cc1c(C)cc(C)cc1C)C2(C)C(=O)NS(=O)(=O)c1ccccn1 (stereo not shown) [Compound 1474, 4-ethoxy-1-methyl-N-(2-pyridylsulfonyl)-2-[(2,4,6-trimethylphenyl)methyl]isoindoline-1-carboxamide] | +++ (“+++” means <3 uM) |
| CCOc1cccc2c1CN(Cc1c(C)cc(C)cc1C)[C@@]2(C)C(=O)NS(=O)(=O)c1ccc[nH]c1=O [Compound 1476, (1R)-4-ethoxy-1-methyl-N-[(2-oxo-1H-pyridin-3-yl)sulfonyl]-2-[(2,4,6-trimethylphenyl)methyl]isoindoline-1-carboxamide] | +++ (“+++” means <3 uM) |
| CC(C)COc1cc(F)cc(-c2ccc(C(=O)NS(=O)(=O)c3cccc(N)n3)c(OC3CCCCC3)n2)c1 [Compound 1477, N-[(6-amino-2-pyridyl)sulfonyl]-2-(cyclohexoxy)-6-(3-fluoro-5-isobutoxy-phenyl)pyridine-3-carboxamide] | +++ (“+++” means <3 uM) |
| Cc1cccc(C)c1Cn1nc(-c2ccc(OC(C)C)cc2)cc1C(=O)NS(=O)(=O)c1ccccc1 [Compound 1478, N-(benzenesulfonyl)-2-[(2,6-dimethylphenyl)methyl]-5-(4-isopropoxyphenyl)pyrazole-3-carboxamide] | +++ (“+++” means <3 uM) |
| CC(C)COc1cc(F)cc(-c2ccc(C(=O)NS(=O)(=O)c3cccc(N)n3)c(OC3(Cc4ccccc4)CCC3)n2)c1 [Compound 1479, N-[(6-amino-2-pyridyl)sulfonyl]-2-(1-benzylcyclobutoxy)-6-(3-fluoro-5-isobutoxy-phenyl)pyridine-3-carboxamide] | +++ (“+++” means <3 uM) |
| CCOc1cccc2c1CN(Cc1c(C)cc(C)cc1C)C2(C)C(=O)NS(=O)(=O)c1ccc(N)cc1 (stereo not shown) [Compound 1480, N-(4-aminophenyl)sulfonyl-4-ethoxy-1-methyl-2-[(2,4,6-trimethylphenyl)methyl]isoindoline-1-carboxamide] | +++ (“+++” means <3 uM) |
| COc1cc(C)cc(S(=O)(=O)NC(=O)c2ccc(-c3cc(F)cc(OCC(C)C)c3)nc2N2C[C@@H](C)CC2(C)C)n1 [Compound 1482, 6-(3-fluoro-5-isobutoxy-phenyl)-N-[(6-methoxy-4-methyl-2-pyridyl)sulfonyl]-2-[(4S)-2,2,4-trimethylpyrrolidin-1-yl]pyridine-3-carboxamide] | +++ (“+++” means <3 uM) |
| COc1cccc(S(=O)(=O)NC(=O)c2ccc(-c3cc(F)cc(OCC(C)C)c3)nc2N2C[C@@H](C)CC2(C)C)n1 [Compound 1483, 6-(3-fluoro-5-isobutoxy-phenyl)-N-[(6-methoxy-2-pyridyl)sulfonyl]-2-[(4S)-2,2,4-trimethylpyrrolidin-1-yl]pyridine-3-carboxamide] | +++ (“+++” means <3 uM) |
| C[C@@H]1CN(c2nc(C(C)(C)C)c(/C=C/C3CCCCC3)cc2C(=O)NS(=O)(=O)c2cccc(N)n2)C(C)(C)C1 [Compound 1484, N-[(6-amino-2-pyridyl)sulfonyl]-6-tert-butyl-5-[(E)-2-cyclohexylvinyl]-2-[(4S)-2,2,4-trimethylpyrrolidin-1-yl]pyridine-3-carboxamide] | +++ (“+++” means <3 uM) |
| CC1CN(c2nc(C(C)(C)C)c(C3=CCCCO3)cc2C(=O)NS(=O)(=O)c2cccc(N)n2)C(C)(C)C1 (stereo not shown) [Compound 1485, N-[(6-amino-2-pyridyl)sulfonyl]-6-tert-butyl-5-(3,4-dihydro-2H-pyran-6-yl)-2-(2,2,4-trimethylpyrrolidin-1-yl)pyridine-3-carboxamide] | +++ (“+++” means <3 uM) |
| CC1CN(c2nc(C(C)(C)C)c(C3=COCCC3)cc2C(=O)NS(=O)(=O)c2cccc(N)n2)C(C)(C)C1 (stereo not shown) [Compound 1487, N-[(6-amino-2-pyridyl)sulfonyl]-6-tert-butyl-5-(3,4-dihydro-2H-pyran-5-yl)-2-(2,2,4-trimethylpyrrolidin-1-yl)pyridine-3-carboxamide] | +++ (“+++” means <3 uM) |

Further lines, results first:

| EC30 | SMILES |
| --- | --- |
| +++ (“+++” means <3 uM) | Cc1cc(C)c(Oc2nc(C3=CC(C)(C)OCC3)ccc2C(=O)NS(=O)(=O)c2cccc(N)n2)c(C)c1 [Compound 1460, N-[(6-amino-2-pyridyl)sulfonyl]-6-(6,6-dimethyl-2,3-dihydropyran-4-yl)-2-(2,4,6-trimethylphenoxy)pyridine-3-carboxamide] |
| +++ (“+++” means <3 uM) | C[C@@H]1CN(c2nc(C3=CC(C)(C)CCC3=O)ccc2C(=O)NS(=O)(=O)c2cccc(N)n2)C(C)(C)C1 [Compound 1462, N-[(6-amino-2-pyridyl)sulfonyl]-6-(3,3-dimethyl-6-oxo-cyclohexen-1-yl)-2-[(4S)-2,2,4-trimethylpyrrolidin-1-yl]pyridine-3-carboxamide] |
| +++ (“+++” means <3 uM) | CC(C)COc1cc(F)cc(-c2ccc(C(=O)NS(=O)(=O)c3cccc(N)n3)c(O[C@H]3CCOC3)n2)c1 [Compound 1464] |
| ++ (“++” means between 3 uM and 10 uM) | Cc1cc(C)c(Oc2nc(C3CCOC(C)(C)C3)ccc2C(=O)NS(=O)(=O)c2cccc(N)n2)c(C)c1 (stereo not shown) [Compound 1466, N-[(6-amino-2-pyridyl)sulfonyl]-6-(2,2-dimethyltetrahydropyran-4-yl)-2-(2,4,6-trimethylphenoxy)pyridine-3-carboxamide] |
| +++ (“+++” means <3 uM) | COc1cc(OC)cc(-c2ccc(C(=O)NS(=O)(=O)c3cccc(N)n3)c(N3C[C@@H](C)CC3(C)C)n2)c1 [Compound 1471, N-[(6-amino-2-pyridyl)sulfonyl]-6-(3,5-dimethoxyphenyl)-2-[(4S)-2,2,4-trimethylpyrrolidin-1-yl]pyridine-3-carboxamide] |
| +++ (“+++” means <3 uM) | CCOc1cc(C)n(-c2ccc(C(=O)NS(=O)(=O)c3cccc(N)n3)c(N3C[C@@H](C)CC3(C)C)n2)n1 [Compound 1473, N-[(6-amino-2-pyridyl)sulfonyl]-6-(3-ethoxy-5-methyl-pyrazol-1-yl)-2-[(4S)-2,2,4-trimethylpyrrolidin-1-yl]pyridine-3-carboxamide] |
| +++ (“+++” means <3 uM) | CCC1CCC(c2ccc(C(=O)NS(=O)(=O)c3cccc(N)n3)c(Oc3c(C)cc(C)cc3C)n2)CC1 (stereo not shown) [Compound 1475, N-[(6-amino-2-pyridyl)sulfonyl]-6-(4-ethylcyclohexyl)-2-(2,4,6-trimethylphenoxy)pyridine-3-carboxamide] |
| +++ (“+++” means <3 uM) | Cc1cc(C)c(Oc2nc(C(C)(C)C)ccc2C(=O)N=S(N)(=O)c2cccc(N)n2)c(C)c1 (stereo not shown) [Compound 1481, N-[amino-(6-amino-2-pyridyl)-oxo-$1^6-sulfanylidene]-6-tert-butyl-2-(2,4,6-trimethylphenoxy)pyridine-3-carboxamide] |
| +++ (“+++” means <3 uM) | Cc1cc(C)c(Oc2nc(C(C)C(C)C)ccc2C(=O)NS(=O)(=O)c2cccc(N)n2)c(C)c1 (stereo not shown) [Compound 1486, N-[(6-amino-2-pyridyl)sulfonyl]-6-(1,2-dimethylpropyl)-2-(2,4,6-trimethylphenoxy)pyridine-3-carboxamide] |
